From US11629143B2, “HipK4 inhibitors and uses thereof” (Vibliome Therapeutics, LLC, priority 2020, dated 2023)

Assays:
Assay in all cases: Kinase panel (mobility shift)
Format in all cases: biochemical
EPH-B2 = molecular target: T1, EPH-B2 (Homo sapiens, UniProt P29323); conditions: at 5 um
T1 sequence (P29323 19-1055): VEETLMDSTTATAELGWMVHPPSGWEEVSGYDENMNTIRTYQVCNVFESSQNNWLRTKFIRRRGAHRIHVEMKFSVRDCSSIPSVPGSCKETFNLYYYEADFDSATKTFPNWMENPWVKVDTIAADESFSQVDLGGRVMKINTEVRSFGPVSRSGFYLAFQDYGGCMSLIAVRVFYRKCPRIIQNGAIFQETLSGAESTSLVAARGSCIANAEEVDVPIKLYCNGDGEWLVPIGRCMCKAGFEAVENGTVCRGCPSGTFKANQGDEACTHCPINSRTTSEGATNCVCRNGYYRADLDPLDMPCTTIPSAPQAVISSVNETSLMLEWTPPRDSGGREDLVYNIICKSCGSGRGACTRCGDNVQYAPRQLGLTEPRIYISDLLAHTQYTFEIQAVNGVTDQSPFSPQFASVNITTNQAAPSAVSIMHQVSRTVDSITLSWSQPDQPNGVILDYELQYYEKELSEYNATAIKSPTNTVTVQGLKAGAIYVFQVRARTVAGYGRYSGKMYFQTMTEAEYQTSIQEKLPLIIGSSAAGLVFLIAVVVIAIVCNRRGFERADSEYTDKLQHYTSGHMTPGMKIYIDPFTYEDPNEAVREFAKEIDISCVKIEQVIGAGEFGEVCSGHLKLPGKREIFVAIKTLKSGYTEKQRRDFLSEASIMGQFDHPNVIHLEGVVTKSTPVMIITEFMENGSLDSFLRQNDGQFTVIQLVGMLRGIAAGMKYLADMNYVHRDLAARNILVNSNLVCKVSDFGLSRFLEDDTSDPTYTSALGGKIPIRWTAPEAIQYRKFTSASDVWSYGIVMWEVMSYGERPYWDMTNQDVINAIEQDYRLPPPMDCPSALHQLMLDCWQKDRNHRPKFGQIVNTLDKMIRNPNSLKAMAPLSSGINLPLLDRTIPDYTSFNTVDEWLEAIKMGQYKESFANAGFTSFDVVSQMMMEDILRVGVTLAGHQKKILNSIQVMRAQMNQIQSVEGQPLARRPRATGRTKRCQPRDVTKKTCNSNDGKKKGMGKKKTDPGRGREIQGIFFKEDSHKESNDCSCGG
How it was run: (§1)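 Tested at a single 5 um concentration within a 299-kinase panel, compounds were scored by electrophoretic mobility shift of a fluorescent substrate into product. Categories: A, 95% or greater; B, 90%-94%; C, 80%-89%.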

HIPK4 = molecular target: T2, HIPK4 (Homo sapiens, UniProt Q8NE63)
T2 sequence (Q8NE63 1-616): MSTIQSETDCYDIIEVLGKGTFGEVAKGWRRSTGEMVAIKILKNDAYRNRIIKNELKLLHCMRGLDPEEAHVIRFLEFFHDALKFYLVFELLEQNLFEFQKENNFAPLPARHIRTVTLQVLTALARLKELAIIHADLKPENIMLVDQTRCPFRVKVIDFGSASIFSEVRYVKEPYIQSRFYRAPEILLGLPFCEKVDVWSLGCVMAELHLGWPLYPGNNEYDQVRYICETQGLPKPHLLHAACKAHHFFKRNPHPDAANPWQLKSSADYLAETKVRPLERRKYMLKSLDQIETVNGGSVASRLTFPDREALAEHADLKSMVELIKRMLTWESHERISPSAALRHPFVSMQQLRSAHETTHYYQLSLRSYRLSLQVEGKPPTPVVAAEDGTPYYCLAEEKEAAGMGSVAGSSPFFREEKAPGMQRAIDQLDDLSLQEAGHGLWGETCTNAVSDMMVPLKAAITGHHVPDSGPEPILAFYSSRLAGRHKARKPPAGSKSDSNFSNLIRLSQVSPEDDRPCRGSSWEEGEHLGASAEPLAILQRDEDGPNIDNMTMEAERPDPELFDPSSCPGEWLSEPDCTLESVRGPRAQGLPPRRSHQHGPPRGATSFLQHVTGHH
How it was run: as §1

LOK = LOK (Homo sapiens, UniProt O94804); conditions: at 5 um
LOK, sequence (O94804 whole entry, species assumed): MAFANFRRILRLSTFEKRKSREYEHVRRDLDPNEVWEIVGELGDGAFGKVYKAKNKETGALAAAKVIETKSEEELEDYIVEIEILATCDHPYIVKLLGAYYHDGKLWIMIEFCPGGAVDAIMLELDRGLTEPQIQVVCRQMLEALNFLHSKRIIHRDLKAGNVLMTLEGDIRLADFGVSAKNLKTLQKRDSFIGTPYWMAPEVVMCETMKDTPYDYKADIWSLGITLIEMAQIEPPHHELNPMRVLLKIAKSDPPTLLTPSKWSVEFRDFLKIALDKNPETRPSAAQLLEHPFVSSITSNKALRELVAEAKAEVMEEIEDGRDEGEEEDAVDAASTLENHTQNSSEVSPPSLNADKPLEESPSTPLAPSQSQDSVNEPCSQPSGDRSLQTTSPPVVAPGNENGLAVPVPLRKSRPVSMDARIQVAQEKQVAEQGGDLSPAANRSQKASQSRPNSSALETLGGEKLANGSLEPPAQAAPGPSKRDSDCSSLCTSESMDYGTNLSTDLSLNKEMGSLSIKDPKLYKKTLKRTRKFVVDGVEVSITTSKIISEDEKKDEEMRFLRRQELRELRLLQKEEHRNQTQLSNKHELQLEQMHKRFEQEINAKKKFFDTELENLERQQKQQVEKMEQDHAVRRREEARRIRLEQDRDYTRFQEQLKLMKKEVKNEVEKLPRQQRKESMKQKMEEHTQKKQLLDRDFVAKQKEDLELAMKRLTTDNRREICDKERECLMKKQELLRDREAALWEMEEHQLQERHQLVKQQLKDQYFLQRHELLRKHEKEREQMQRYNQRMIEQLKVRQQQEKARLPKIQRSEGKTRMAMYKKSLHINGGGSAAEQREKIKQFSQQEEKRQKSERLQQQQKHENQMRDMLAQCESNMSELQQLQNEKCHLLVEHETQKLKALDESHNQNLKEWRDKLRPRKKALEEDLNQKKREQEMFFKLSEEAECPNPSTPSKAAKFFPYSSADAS
How it was run: as §1

MER = molecular target: T3, MER (Homo sapiens, UniProt Q12866)
T3 sequence (Q12866 21-999): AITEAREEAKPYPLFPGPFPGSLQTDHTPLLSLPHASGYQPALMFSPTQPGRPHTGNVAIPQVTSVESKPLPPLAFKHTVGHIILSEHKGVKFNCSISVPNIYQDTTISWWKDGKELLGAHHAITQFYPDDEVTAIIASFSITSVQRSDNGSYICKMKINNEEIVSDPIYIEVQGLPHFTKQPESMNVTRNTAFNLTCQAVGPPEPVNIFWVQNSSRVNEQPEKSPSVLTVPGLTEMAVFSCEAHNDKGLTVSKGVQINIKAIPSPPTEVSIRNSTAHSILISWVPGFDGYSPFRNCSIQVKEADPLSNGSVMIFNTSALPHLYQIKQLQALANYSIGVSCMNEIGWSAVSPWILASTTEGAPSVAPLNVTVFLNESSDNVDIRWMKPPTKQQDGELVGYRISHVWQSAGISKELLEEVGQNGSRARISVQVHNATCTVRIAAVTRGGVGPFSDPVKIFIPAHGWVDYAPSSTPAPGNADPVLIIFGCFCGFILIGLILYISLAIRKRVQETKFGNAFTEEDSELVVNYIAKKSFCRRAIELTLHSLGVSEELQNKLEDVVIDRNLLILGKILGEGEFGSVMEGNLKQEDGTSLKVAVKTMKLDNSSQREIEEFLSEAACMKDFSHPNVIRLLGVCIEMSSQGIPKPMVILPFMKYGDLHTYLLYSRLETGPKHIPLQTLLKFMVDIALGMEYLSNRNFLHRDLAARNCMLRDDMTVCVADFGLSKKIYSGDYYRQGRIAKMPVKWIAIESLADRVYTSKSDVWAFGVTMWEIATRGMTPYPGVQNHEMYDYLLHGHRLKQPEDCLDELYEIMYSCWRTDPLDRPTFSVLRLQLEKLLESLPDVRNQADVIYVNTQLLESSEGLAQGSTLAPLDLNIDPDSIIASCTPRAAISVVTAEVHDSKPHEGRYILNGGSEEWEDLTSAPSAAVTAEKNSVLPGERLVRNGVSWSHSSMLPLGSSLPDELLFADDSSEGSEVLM
How it was run: as §1

PDGFR-b = PDGFR-b (Homo sapiens, UniProt P09619)
PDGFR-b, sequence (P09619 33-1106, species assumed): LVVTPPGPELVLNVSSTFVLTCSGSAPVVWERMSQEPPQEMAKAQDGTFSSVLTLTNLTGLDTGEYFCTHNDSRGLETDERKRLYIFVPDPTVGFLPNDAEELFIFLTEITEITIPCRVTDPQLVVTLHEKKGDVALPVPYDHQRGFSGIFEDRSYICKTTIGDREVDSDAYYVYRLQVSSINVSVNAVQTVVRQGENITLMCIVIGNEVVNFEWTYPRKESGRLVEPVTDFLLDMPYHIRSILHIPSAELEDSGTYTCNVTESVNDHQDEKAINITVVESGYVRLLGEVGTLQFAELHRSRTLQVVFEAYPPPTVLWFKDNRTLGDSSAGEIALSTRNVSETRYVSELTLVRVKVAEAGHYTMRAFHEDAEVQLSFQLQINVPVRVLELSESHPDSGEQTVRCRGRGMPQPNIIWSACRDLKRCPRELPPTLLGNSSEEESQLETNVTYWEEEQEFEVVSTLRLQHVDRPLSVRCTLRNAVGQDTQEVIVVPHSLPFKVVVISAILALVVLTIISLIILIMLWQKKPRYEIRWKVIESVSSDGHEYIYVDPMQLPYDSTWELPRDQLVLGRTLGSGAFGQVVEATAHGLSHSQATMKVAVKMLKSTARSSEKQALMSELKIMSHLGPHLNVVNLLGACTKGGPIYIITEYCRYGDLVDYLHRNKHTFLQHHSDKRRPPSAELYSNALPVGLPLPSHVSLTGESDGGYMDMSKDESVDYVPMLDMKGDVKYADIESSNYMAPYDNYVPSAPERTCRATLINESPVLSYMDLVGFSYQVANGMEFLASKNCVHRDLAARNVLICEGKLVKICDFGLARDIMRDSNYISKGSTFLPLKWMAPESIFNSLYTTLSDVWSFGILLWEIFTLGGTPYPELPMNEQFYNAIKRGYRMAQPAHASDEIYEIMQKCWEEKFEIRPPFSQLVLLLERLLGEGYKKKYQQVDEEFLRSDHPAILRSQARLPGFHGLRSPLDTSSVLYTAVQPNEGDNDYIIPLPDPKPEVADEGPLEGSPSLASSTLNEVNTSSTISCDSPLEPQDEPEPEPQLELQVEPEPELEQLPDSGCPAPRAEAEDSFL
How it was run: as §1

Compound	inhibition of kinase activity, EPH-B2 (EPH-B2)	inhibition at 5 µM (HIPK4)	inhibition of kinase activity, LOK (LOK)	inhibition at 5 µM (MER)	inhibition at 5 µM (PDGFR-b)
CNC(=O)c1cc(Oc2ccc(NC(=O)c3nc(OC)oc3-c3ccc(F)s3)cc2F)ccn1 [Compound 25]	E (category E is less than 50%)	≥ 95%	D (category D for 50-79)	< 50%	< 50%
CNC(=O)c1cc(Oc2ccc(NC(=O)c3nc(C4CC4)oc3-c3ccc(F)cc3)cc2F)ccn1 [Compound 26]	C (C=80%-89% at 5 um)	≥ 95%	C (C=80%-89% at 5 um)	80 to 89%	< 50%
CSc1nc(C(=O)Nc2ccc(Oc3ccnc(C(=O)NC4CNC4)c3)c(F)c2)c(-c2ccc(F)s2)o1 [Compound 27]	E (category E is less than 50%)	≥ 95%	E (category E is less than 50%)	< 50%	< 50%
CSc1nc(C(=O)Nc2ccc(Oc3ccnc(C(=O)NC4COC4)c3)c(F)c2)c(-c2ccc(F)s2)o1 [Compound 28]	E (category E is less than 50%)	≥ 95%	E (category E is less than 50%)	< 50%	< 50%
CSc1nc(C(=O)Nc2ccc(Oc3ccnc(C(=O)NC4CNC4)c3)c(F)c2)c(-c2ccc(F)cc2)o1 [Compound 29]	E (category E is less than 50%)	≥ 95%	D (category D for 50-79)	50 to 79%	< 50%
CNC(=O)c1cc(Oc2ccc(NC(=O)c3nc(COC)oc3-c3ccc(F)cc3)cc2F)ccn1 [Compound 30]	B (B=90%-94% at 5 um)	≥ 95%	A (A=95% or greater at 5 um)	80 to 89%	< 50%
CSc1nc(C(=O)Nc2ccc(Oc3ccnc(C(=O)NC4COC4)c3)c(F)c2)c(-c2ccc(F)cc2)o1 [Compound 31]	D (category D for 50-79)	≥ 95%	D (category D for 50-79)	< 50%	< 50%
CNC(=O)c1cc(Oc2ccc(NC(=O)c3nc(OC4CC4)oc3-c3ccc(F)cc3)cc2F)ccn1 [Compound 32]	D (category D for 50-79)	≥ 95%	B (B=90%-94% at 5 um)	80 to 89%	< 50%
[2H]C([2H])([2H])NC(=O)c1cc(Oc2ccc(NC(=O)c3nc(SC)oc3-c3ccc(F)c(F)c3)cc2F)ccn1 [Compound 33]	E (category E is less than 50%)	≥ 95%	C (C=80%-89% at 5 um)	< 50%	< 50%
CNC(=O)c1cc(Oc2ccc(NC(=O)c3nc(SC(C)C)oc3-c3ccc(F)cc3)cc2F)ccn1 [Compound 34]	C (C=80%-89% at 5 um)	≥ 95%	A (A=95% or greater at 5 um)	90 to 94%	< 50%
[2H]C([2H])([2H])NC(=O)c1cc(Oc2ccc(NC(=O)c3nc(SC)oc3-c3ccc(F)s3)cc2F)ccn1 [Compound 35]	D (category D for 50-79)	≥ 95%	D (category D for 50-79)	< 50%	< 50%

Now from value to molecule:

inhibition of kinase activity, EPH-B2 (EPH-B2)	inhibition at 5 µM (HIPK4)	inhibition of kinase activity, LOK (LOK)	inhibition at 5 µM (MER)	inhibition at 5 µM (PDGFR-b)	Compound
E (category E is less than 50%)	80 to 89%	E (category E is less than 50%)	< 50%	< 50%	CNC(=O)c1ccc(Oc2ccc(NC(=O)c3nc(Cl)oc3-c3ccc(F)cc3)c(F)c2)cn1 [Compound 36]
E (category E is less than 50%)	≥ 95%	E (category E is less than 50%)	< 50%	< 50%	CSc1nc(C(=O)Nc2ccc(Oc3ccnc(C(=O)NC4COC4)c3)c(F)c2)c(-c2ccc(F)c(F)c2)o1 [Compound 37]
E (category E is less than 50%)	≥ 95%	C (C=80%-89% at 5 um)	80 to 89%	< 50%	CNC(=O)c1cc(Oc2ccc(NC(=O)c3nc(OCC(F)(F)F)oc3-c3ccc(F)cc3)cc2F)ccn1 [Compound 38]
E (category E is less than 50%)	≥ 95%	E (category E is less than 50%)	< 50%	< 50%	COc1nc(C(=O)Nc2ccc(Oc3ccnc(C(=O)NC4COC4)c3)c(F)c2)c(-c2ccc(F)cc2)o1 [Compound 39]
E (category E is less than 50%)	≥ 95%	E (category E is less than 50%)	< 50%	< 50%	CSc1nc(C(=O)Nc2ccc(Oc3ccnc(C(=O)NCC(F)(F)F)c3)c(F)c2)c(-c2ccc(F)cc2)o1 [Compound 40]
D (category D for 50-79)	≥ 95%	E (category E is less than 50%)	50 to 79%	< 50%	CSc1nc(C(=O)Nc2ccc(Oc3ccnc(C(=O)NCCN(C)C)c3)c(F)c2)c(-c2ccc(F)cc2)o1 [Compound 41]
